Experimental data: patent US20240166702A1, “COMPOSITIONS AND METHODS FOR TREATING BREAST CANCER” (Arizona Board of Regents on Behalf of The University of …, priority 2021, published 2024)

Legend:
[1] = tested on: WAP-TGFα tumors; assay: Anti-NKp46 antibody analysis of WAP-TGFα tumors for NK cells; assay type: in vivo, mouse; conditions: anti-NKp46 antibodies
Method: C. WAP-TGFα tumors treated with either SNX1.3 or cPTD4 were analyzed for NK cells using an anti-NKp46 antibody. Inset is 20×.
In addition to bioinformatics identification of CTLs in these tumors, similar analysis implicated recruitment of NK cells as well (FIG. 9). As a part of the innate immune system, NK cells should only be recruited if a change has occurred to display NK-activating antigens. While there are many such antigens expressed under a variety of immune modulation conditions, some are highly associated with activation of NK cells against cancers, such as ULBP2/3 or MICA/MICB32.

[2] = tested on: WAP-TGFα tumors; assay: Immune profiling FACS analysis of WAP-TGFα tumors; assay type: in vivo, mouse; conditions: 3 treated tumors; preliminary FACS
Method: Preliminary immune profiling FACS analysis performed with the markers described in Example 1.
To begin to evaluate how these changes indicated by NanoString represented the immune microenvironment of these tumors, Immune Profiling was performed. […] When tumors had regressed to ˜100 mm^3 (after 1-2 weeks of treatment), tumor were excised, treated with collagenase and analyzed by FACS, using a 17-antibody panel to determine cell types present. Data was analyzed by first selecting for CD45+ cells to isolate leukocytes, then further gated based on markers specific to cells of both the adaptive and innate immune system. This preliminary analysis was done with 3 cSNX1.3-treated tumors, and the internal positive control of one spleen. […]
Immune Profiling: Tissues are digested and analyzed by FACS for the following immune markers: CD45 (lymphocytes), CD4 (helper T cells) CD3 (Pan T cell), CD25 (Activated T cells), CD8a (cytotoxic T cells), Ly6G (G-Myeloid Derived Suppressor Cells (MDSC), CD11 b (MDSC), Ly6C (M-M DSC), CD11C (Dendritic Cells), F4/80 (Macrophages), Granzyme B (Natural Killer (NK) and CD8 T cells), Arginase 1 (MDSC), Perforin (NK and CD8 Tcells), iNos (macrophages), TNFα (pro inflammatory cytokine), INFy (pro inflammatory cytokine), FoxP3 (Treg). The samples are run on a Cytek Aurora full spectrum flow cytometer and are optimized for the mouse tissues (FIG. 10). […]

[3] = tested on: WAP-TGFα tumors; assay: Histology and protein lysate analysis of treated WAP-TGFα tumors; assay type: in vivo, mouse
Excerpt: Mice were bred continuously to induce transgene expression and palpated weekly for tumor formation. […] A. Changes in tumor size from entry into study until end of study are shown for each individual tumor, (*) indicate tumors that entered the study at size greater than 500 mm^3, all other tumors entered the study at ˜100 mm^3. B. a Kaplan-Meier survival curve was generated showing when mice were sacrificed by either reaching tumor burden (2000 mm^3) or the end of the study (p=0.0002). C. Upon sacrifice tumors were harvested and fixed in 10% formalin and embedded in paraffin. Slides were stained with hematoxylin and eosin and imaged at 20×. D. Protein lysates were generated from tumors upon sacrifice and probed for the indicated proteins.
A. Tumors (n=6 each treatment) from WAP-TGF mice as described in FIG. 1 were embedded and analyzed by NanoString. […] C. Tumors were dissected, lysed, and analyzed for apoptosis by probing for cleaved PARP and PDL1 expression.
At the end of the study, mice were sacrificed and tissues were collected and fixed in 10% buffered formalin or homogenized in tissue lysis buffer. Tissues were sectioned and evaluated for changes to tissue morphology in response to peptide treatment (FIG. 3C). […] Representative tumors from the PARP-cleavage positive (cSNX1.3-treated) and negative (cPTD4-treated) are shown (FIG. 3C).
Due to the increased leukocyte infiltration identified by histology of cSNX1.3-treated WAP-TGFα mice, NanoString analysis was performed using a panel that identifies alterations in immune regulators through localized analysis of transcript expression (PanCancer IO 360 Panel). […] These include several immune/inflammatory genes (such as CD2, TLR, CD28, H2-M3, Ly6C1, cytokines, and chemokines) as well as genes that could impact the metastatic potential of the microenvironment (including collagen 11A1 and MM P12). NanoString bioinformatics analysis further identified that these changes could be due to an increase in Cytotoxic T lymphocytes (CTLs) in cSNX1.3-treated samples compared to PTD4 (FIG. 8B). […] Therefore, tumor lysates were prepared and evaluated for apoptosis and a loss of the negative immune checkpoint receptor PDL1 (FIG. 8C). […] These changes could indicate an alteration from an immune-suppressive to an immune-surveilling microenvironment.

[4] = tested on: nuclear localized EGFR; assay: Subcellular protein fractionation for EGFR nuclear localization; assay type: cell-based, human; conditions: MDA-MB-468 serum starved, EGF and peptide for 2 hours
Method: Cells were then fractionated and verified by HSP90 cytosolic protein, Bap31 membrane protein, or HDAC nuclear protein. B. MDA-MB-468 cells were serum starved overnight then stimulated with EGF on ice for 10 minutes. […] B. MDA-MB-468 cells were serum starved overnight then incubated on ice with 10 ng/mL EGF for 10 minutes. […] C. […] After the second week, the number of secondary mammospheres were counted.
MDA-MB-468 were serum starved overnight then incubated with EGF and peptide for 2 hours to allow for nuclear localization of EGFR. Subcellular protein fractionation was then performed to isolate cytosolic, membrane, and nuclear protein fractions (FIG. 5A).

[5] = tested on: MDA-MB-468 cells with reduced EGFR; assay: MTT viability in MDA-MB-468 cells with shRNA knock down of EGFR; assay type: cell-based, human; conditions: shRNA to the 3′UTR of EGFR, 5 days IPTG, 3 days peptide, MTT assay
Method: B. MDA-MD-468 cells were transduced with an IPTG inducible shEGFR targeted against the 3′ UTR of EGFR. These cells were incubated with IPTG for the indicated number of days and lysates were generated to confirm knock down of EGFR. C. In tandem with B., cells were plated and incubated +/−IPTG for 2 days prior to drug treatment. […] After 5 days of IPTG and 3 days of peptide treatment viability was measured using an MTT assay.
No effect on CHO cells that lack EGFR expression was observed.

CC[C@H](C)[C@H](NC(=O)[C@@H](NC(=O)[C@H](Cc1c[nH]cn1)NC(=O)[C@H](CC(N)=O)NC(=O)[C@H](CCCCN)NC(=O)[C@H](C)NC(=O)[C@H](CCCNC(=N)N)NC(=O)[C@H](C)NC(=O)[C@H](CCC(N)=O)NC(=O)[C@H](CCCNC(=N)N)NC(=O)[C@H](C)NC(=O)[C@H](C)NC(=O)[C@H](C)NC(=O)[C@H](CCCNC(=N)N)NC(=O)[C@H](C)NC(=O)[C@H](Cc1ccc(O)cc1)NC(C)=O)C(C)C)C(=O)N[C@@H](CCCCN)C(=O)N[C@@H](Cc1ccc(O)cc1)C(=O)N[C@@H](CC(C)C)C(=O)N[C@@H](CCC(=O)O)C(=O)N[C@H](C(=O)N[C@@H](CC(C)C)C(=O)N[C@@H](CC(C)C)C(=O)N[C@@H](Cc1ccc(O)cc1)C(=O)N[C@@H](CO)C(=O)N[C@@H](CCC(N)=O)C(=O)N[C@@H](CCC(N)=O)C(=O)N[C@@H](CCC(N)=O)C(=O)N[C@@H](CC(C)C)C(=O)N[C@@H](C)C(=O)N[C@@H](CCCCN)C(=O)N[C@@H](Cc1ccc(O)cc1)C(=O)N[C@@H](Cc1c[nH]c2ccccc12)C(=O)N[C@@H](CCC(=O)O)C(=O)N[C@@H](C)C(=O)N[C@@H](Cc1ccccc1)C(=O)N[C@@H](CC(C)C)C(N)=O)[C@@H](C)O [cSNX1.3]
NK cell infiltration into tumors [1]: Significant NK cell infiltration
CTLs in tumors [2]: Abundant
M1 macrophages over M2 macrophages (M1/M2 ratio) [2]: high and increase
changes to tissue architecture in the normal mammary gland ([3]; fixed tissue sections at end of study): No changes
leukocyte infiltration of tumors ([3]; identified by histology): increased
overall PDL1 expression in tumors ([3]; tumor lysates): decrease
cleaved PARP / apoptosis in treated tumors ([3]; tumor protein lysates at sacrifice): significant increase
nuclear localized EGFR [4]: loss of nuclear localized EGFR
efficacy in cells with reduced EGFR [5]: lacked significant efficacy
